A value given as a limit tells only on which side of the number the result lay.

In patent US20230026611A1, “ARYL HETEROCYCLIC COMPOUNDS AS Kv1.3 POTASSIUM SHAKER CHANNEL BLOCKERS” (D. E. Shaw Research, LLC, priority 2019, published 2023) one finds IC50 data, which are given here for 35 compounds.

For the first assay, the target named is T1, Kv1.3 potassium channel (Homo sapiens, UniProt P22001).
T1 construct: expressed in transfected cells
T1 sequence (P22001 whole entry): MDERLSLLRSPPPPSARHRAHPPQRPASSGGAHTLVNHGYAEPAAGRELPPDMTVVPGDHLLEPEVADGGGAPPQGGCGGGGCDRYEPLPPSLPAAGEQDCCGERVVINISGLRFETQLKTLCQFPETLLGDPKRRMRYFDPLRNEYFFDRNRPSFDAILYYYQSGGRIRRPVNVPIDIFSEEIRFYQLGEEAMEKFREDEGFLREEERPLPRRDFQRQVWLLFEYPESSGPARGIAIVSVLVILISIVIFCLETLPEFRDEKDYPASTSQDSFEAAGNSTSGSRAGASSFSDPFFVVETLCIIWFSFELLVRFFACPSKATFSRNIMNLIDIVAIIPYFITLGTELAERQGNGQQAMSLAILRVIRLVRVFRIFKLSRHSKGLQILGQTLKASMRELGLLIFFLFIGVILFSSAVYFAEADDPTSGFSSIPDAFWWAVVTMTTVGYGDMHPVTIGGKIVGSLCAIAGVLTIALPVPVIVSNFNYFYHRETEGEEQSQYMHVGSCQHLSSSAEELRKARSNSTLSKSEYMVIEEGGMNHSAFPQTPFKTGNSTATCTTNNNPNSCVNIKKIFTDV
The assay is described as follows: Kv1.3 potassium channel blocker activity, automated whole-cell patch clamp (Patchliner) in CHO-K1 cells stably expressing Kv1.3. Format: cell-based.
Conditions: not given
As for the experimental part:
Example 82. Evaluation of Kv1.3 potassium channel blocker activities
This assay is used to evaluate the disclosed compounds' activities as Kv1.3 potassium channel blockers.
CHO-K1 cells stably expressing Kv1.3 were grown in DMEM containing 10% heat-inactivated FBS, 1 mM sodium pyruvate, 2 mM L-glutamine, and G418 (500 μg/ml).
All compounds were dissolved in DMSO at 30 mM.
The currents were evoked by applying 100 ms depolarizing pulses from −90 mV (holding potential) to +40 mV were applied with 0.1 Hz frequency. […] 10-second breaks were used between pulse trains (see Table A below).
Data were sampled at 10 kHz without filtering. Passive leak currents were subtracted online using a P/4 procedure (HEKA Elektronik Dr. Schulze GmbH). […] Total compound incubation time before the next pulse train was not longer than 10 seconds. Peak current inhibition was observed during compound equilibration.
On the technique in general: In patch-clamp work, channel activity is measured electrically.
In general, IC50 refers to the midpoint of a concentration-inhibition curve. With `N#CC1(c2cc(Cl)c(Cl)cc2O)CCNCC1` [Compound 13, 4-(4,5-dichloro-2-hydroxyphenyl)piperidine-4-carbonitrile], the IC50 is < 10 µM. On the same count and under the same terms, under `Oc1cc(Cl)c(Cl)cc1[C@@H]1C[C@H]2CC[C@@H](C1)N2` (single isomer, unassigned; isomer 1) [Compound 15, 2-[8-azabicyclo[3.2.1]octan-3-yl]-4,5-dichlorophenol isomer 1] stands < 10 µM.

Staying with this assay, now noted: CHO-K1 cells stably expressing Kv1.3; patch clamp, current inhibition; read-out: Kv1.3 IC50.
`COC(=O)[C@@H]1CNC[C@H]1c1cc(Cl)c(Cl)cc1O` (relative stereo) [Compound 53, (3R,4S)-rel-methyl 4-(4,5-dichloro-2-hydroxyphenyl)pyrrolidine-3-carboxylate]: the IC50 is < 10 µM. Consider `O=C(C1CC(c2c(O)ccc(Cl)c2Cl)CCN1)N1CCNCC1` (centres unmarked) [Compound 75, 3,4-dichloro-2-[2-(piperazine-1-carbonyl)piperidin-4-yl]phenol], for which the IC50 was < 10 µM.

For the compound `N[C@@H]1CNCC[C@H]1c1cc(Cl)c(Cl)cc1O` (relative stereo) [Compound 49, (3R,4R)-rel-2-(3-aminopiperidin-4-yl)-4,5-dichlorophenol], the IC50 was < 10 µM.

`Nc1nnc([C@H]2C[C@@H](c3c(O)ccc(Cl)c3Cl)CCN2)o1` (relative stereo) [Compound 103, 2-((2R,4S)-rel-2-(5-amino-1,3,4-oxadiazol-2-yl)piperidin-4-yl)-3,4-dichlorophenol]: the IC50 was < 10 µM. On the same count and under the same terms, under `Oc1ccc(Br)c(Cl)c1C1CCNCC1` [Compound 81, 4-bromo-3-chloro-2-(piperidin-4-yl)phenol] stands < 1 µM. Same read-out and setting: under `Cc1ccc(O)c(C2CCNCC2)c1Cl` [Compound 71, 3-chloro-4-methyl-2-(piperidin-4-yl)phenol] stands < 30 µM; under `OC[C@H]1C[C@@H](c2cc(Cl)c(Cl)cc2O)CCN1` (single isomer, unassigned) [Compound 34], < 10 µM; under `NC(=O)[C@H]1CNCC[C@H]1c1cc(Cl)c(Cl)cc1O` (single isomer, unassigned) [Compound 58], < 1 µM.

With `Oc1cc(C(F)(F)F)c(Cl)cc1C1CCNCC1` [Compound 29, 4-chloro-2-(piperidin-4-yl)-5-(trifluoromethyl)phenol], the IC50 was < 10 µM. Same read-out and setting: under `Oc1cc(Cl)c(Cl)cc1C1CCNCC1n1ccnn1` (centres unmarked) [Compound 62, 4,5-dichloro-2-[3-(1H-1,2,3-triazol-1-yl)piperidin-4-yl]phenol] stands < 10 µM; under `CC1(c2cc(Cl)c(Cl)cc2O)CCNCC1` [Compound 1, 4,5-dichloro-2-(4-methylpiperidin-4-yl)phenol], < 10 µM; under `O=C(NC1CNC1)[C@@H]1CN[C@H](c2c(O)ccc(Cl)c2Cl)C1` (single isomer, unassigned) [Compound 123], < 10 µM. Still for that read-out and setting: under `NC[C@@H]1CNCC[C@H]1c1cc(Cl)c(Cl)cc1O` (relative stereo) [Compound 48, (3R,4R)-rel-2-[3-(aminomethyl)piperidin-4-yl]-4,5-dichlorophenol] stands < 10 µM; under `Oc1cc(Cl)c(Cl)c(Cl)c1C1=CCNCC1` [Compound 46, 3,4,5-trichloro-2-(1,2,3,6-tetrahydropyridin-4-yl)phenol], < 10 µM; under `N[C@H]1CNCC[C@H]1c1cc(Cl)c(Cl)cc1O` (relative stereo) [Compound 51, (3R,4S)-rel-2-(3-aminopiperidin-4-yl)-4,5-dichlorophenol], < 10 µM. On to `NC(=O)C1CCCN(c2c(O)ccc(Cl)c2Cl)C1` (centres unmarked) [Compound 88, 1-(2,3-dichloro-6-hydroxyphenyl)piperidine-3-carboxamide], for which the IC50 is < 10 µM. For the compound `NC1(CO)CCN(c2cc(Cl)c(Cl)cc2O)CC1` [Compound 33, 2-[4-amino-4-(hydroxymethyl)piperidin-1-yl]-4,5-dichlorophenol], the IC50 is < 10 µM. For the compound `Oc1cc(Cl)c(Cl)cc1[C@@H]1CCNC[C@H]1O` (relative stereo) [Compound 7, (3R,4R)-rel-4-(4,5-dichloro-2-hydroxyphenyl)piperidin-3-ol], the IC50 was < 10 µM.

On to `Oc1cc(Cl)c(Cl)cc1N1CCCNCC1` [Compound 37, 4,5-dichloro-2-(1,4-diazepan-1-yl)phenol], for which the IC50 is < 10 µM.

Consider `CC(=O)N1CCC(c2cc(Cl)c(Cl)cc2O)CC1` [Compound 10, 1-[4-(4,5-dichloro-2-hydroxyphenyl)piperidin-1-yl]ethan-1-one], for which the IC50 was < 10 µM. With `NC[C@H]1CNCC[C@H]1c1cc(Cl)c(Cl)cc1O` (relative stereo) [Compound 47, (3R,4S)-rel-2-[3-(aminomethyl)piperidin-4-yl]-4,5-dichlorophenol], the IC50 is < 30 µM. On to `Oc1cccc(Cl)c1C1CCNCC1` [Compound 66, 3-chloro-2-(piperidin-4-yl)phenol], for which the IC50 is < 10 µM. The same measure, in the same setting: under `CC1(C(N)=O)CC(c2c(O)ccc(Cl)c2Cl)CCN1` (centres unmarked) [Compound 83, 4-(2,3-dichloro-6-hydroxyphenyl)-2-methylpiperidine-2-carboxamide] stands < 10 µM; under `O=C([C@H]1C[C@H](c2c(O)ccc(Cl)c2Cl)CCN1)N1CCOCC1` (relative stereo) [Compound 76, (2R,4R)-rel-3,4-dichloro-2-[2-(morpholine-4-carbonyl)piperidin-4-yl]phenol], < 10 µM. As for `O=C([C@H]1C[C@@H](c2c(O)ccc(Cl)c2Cl)CCN1)N1CCOCC1` (relative stereo) [Compound 80, (2R,4S)-rel-3,4-dichloro-2-[2-(morpholine-4-carbonyl)piperidin-4-yl]phenol], the IC50 was < 10 µM. Consider `O=C1NCCC12CC(c1c(O)ccc(Cl)c1Cl)CCN2` (centres unmarked) [Compound 87, 9-(2,3-dichloro-6-hydroxyphenyl)-2,6-diazaspiro[4.5]decan-1-one], for which the IC50 was < 10 µM. As for `NC(=O)[C@H]1CN(c2c(O)ccc(Cl)c2Cl)CCN1` [Compound 90, (2R)-4-(2,3-dichloro-6-hydroxyphenyl)piperazine-2-carboxamide], the IC50 is < 10 µM. Consider `Oc1cc(Cl)c(Cl)cc1C1=CCCNC1` [Compound 19, 4,5-dichloro-2-(1,2,3,6-tetrahydropyridin-5-yl)phenol], for which the IC50 was < 10 µM. Still for that read-out and setting: under `Oc1ccc(C2CC2)c(Cl)c1C1CCNCC1` [Compound 69, 3-chloro-4-cyclopropyl-2-(piperidin-4-yl)phenol] stands < 30 µM; under `CN(C)C(=O)[C@H]1C[C@@H](c2c(O)ccc(Cl)c2Cl)CCN1` (relative stereo) [Compound 77, (2R,4S)-rel-4-(2,3-dichloro-6-hydroxyphenyl)-N,N-dimethylpiperidine-2-carboxamide], < 10 µM; under `O=C(NC1CNC1)C1CN[C@@H](c2c(O)ccc(Cl)c2Cl)C1` (single isomer, unassigned) [Compound 121], < 1 µM.

As to `NC(=O)[C@@H]1CNCC[C@@H]1c1cc(Cl)c(Cl)cc1O` (single isomer, unassigned) [Compound 56], the IC50 is < 10 µM.

Turning to `CN(C)C(=O)[C@H]1C[C@H](c2c(O)ccc(Cl)c2Cl)CCN1` (relative stereo) [Compound 82, (2R,4R)-rel-4-(2,3-dichloro-6-hydroxyphenyl)-N,N-dimethylpiperidine-2-carboxamide], the IC50 was < 10 µM.
